The target of series [1] is T1, mHsp90ND (N-terminal domain of mouse Hsp90α) (Mus musculus, UniProt P07901).
T1 construct: Hsp90α (residues 9–225 Swiss Prot entry: P07901); His6 (N); made in house; host or cells: Escherichia coli BL21 (DE3) codon plus RIL
As to the kind of experiment: Isothermal titration calorimetry (ITC). The class given is binding. Here is the method:
The PCR product was cloned into plasmid pET28a, which encodes a purification tag consisting of the amino acids His6 at the N-terminal of the protein. mHsp90ND was expressed in Escherichia coli (E. coli) BL21 (DE3) codon plus RIL (Stratagene) cell. The cells were lysed by sonication in 50 mM Tris-HCl (pH 7.4), 100 mM NaCl, 2 mM 2-mercaptoethanol, and 0.2 mM phenylmethylsulfonyl fluoride (PMSF). After centrifugation, mHsp90ND in the supernatant was purified by Ni^2+-chelated Hi-trap chelating column, and HiLoad 26/60 200pg column (GE healthcare, Chicago, IL, USA). After the final step, mHsp90ND was stored in 20 mM Tris-HCl (pH 7.4), 100 mM NaCl, and 1 mM dithiothreitol (DTT).
Stock solutions of those compounds were prepared in dimethyl sulfoxide (DMSO) at 100 mM concentration and stored at −20 °C. The ITC buffer contained 20 mM Tris (pH 8.0), 100 mM NaCl, and up to 2% DMSO. […] The experimental raw data were corrected for dilution by subtracting the values for buffer alone and then fit by a one-site binding model. Titration data were fit using a nonlinear least squares curve-fitting algorithm with three floating variables: stoichiometry, binding constant (KD), and change of enthalpy of interaction.

In series [2] the test system is HCT116 cells. As to the kind of experiment: MTT antiproliferative assay, HCT116. As to conditions: Homo sapiens, HCT-116, 72 h; for inhibition at 10 µM: read-out: HCT116 % Inh. at 10 μM. Format: cell-based, human. As to the method: The growth inhibitory effects of the test compounds, at 10 µM dose, were determined after 72 h incubation using the 3-(4,5-dimethylthiazol-2-yl)-2,5-diphenyl tetrazolium bromide (MTT) assay.
(§1) Cytotoxic activity of certain Hsp90 inhibitors against human cancer cell lines (MCF-7, SK-BR-3, and HCT116) was investigated using the MTT assay following the reported procedure. Cells were seeded into 96-well plates at a density of 3000 cells per well (MCF-7, HCT116, SK-BR-3 cells per each well). The compounds were added into cells and incubated for 72 h. Then, absorbance at 450 nm was measured using a Microplate Absorbance Reader (Bio-Rad, Hercules, CA, USA).

In series [3] the target is T2, human recombinant N-terminal Hsp90α (Homo sapiens, UniProt P07900).
T2 construct: human recombinant N-terminal Hsp90α protein; purchased Reaction Biology Corporation (RBC, Malvern, PA, USA; assay service)
As to the kind of experiment: Fluorescence polarization competition assay with FITC-GM probe (Reaction Biology Corporation). The conditions noted are these: for inhibition at 10 µM: read-out: Hsp90α % Inhibition @10 μM; for IC50: 10-dose, threefold serial dilution starting at 100 μM, mean of two experiments. Format: binding.

In series [4] the test system is MCF-7 cells. Put plainly: MTT antiproliferative assay, MCF-7. The class given is cell-based, human. As to conditions: Homo sapiens, MCF7, 72 h; for inhibition at 10 µM: read-out: MCF-7 % Inh. at 10 μM; for GI50: mean ± SEM of two experiments. As to the method: The growth inhibitory effects of the test compounds, at 10 µM dose, were determined after 72 h incubation using the 3-(4,5-dimethylthiazol-2-yl)-2,5-diphenyl tetrazolium bromide (MTT) assay. […] Such modest cellular outcomes of those purine derivatives may be attributed to their lower lipophilic characters, which in turn restrict their cellular permeability into cancer cells. […] The 2-phenyloxazole-substituted purine 8 exerted reasonable antiproliferative activity, with GI values of 33.27% and 37.46% against MCF-7 and SK-BR-3 cells, respectively.
as §1

The test system of series [5] is SK-BR-3 cells. As to the kind of experiment: MTT antiproliferative assay, SK-BR-3. Format: cell-based, human. The conditions noted are these: Homo sapiens, SK-BR-3, 72 h; for inhibition at 10 µM: read-out: SK-BR-3 % Inh. at 10 μM; for GI50: mean ± SEM of two experiments.
Excerpt: […] […] Such modest cellular outcomes of those purine derivatives may be attributed to their lower lipophilic characters, which in turn restrict their cellular permeability into cancer cells. […] The 2-phenyloxazole-substituted purine 8 exerted reasonable antiproliferative activity, with GI values of 33.27% and 37.46% against MCF-7 and SK-BR-3 cells, respectively.
as §1

The subject of series [6] is HSP90 client proteins (EGFR, Akt), Hsp70 in MCF7 cells. Put plainly: Western blot of HSP90 client proteins and Hsp70 in MCF7 cells. Format: cell-based, human. The conditions noted are these: 24 h. Here is the method: Furthermore, the effect of compound 14 on cellular biomarkers of the HSP90 inhibition was evaluated to obtain insights about the molecular mechanisms triggering its anticancer activity. MCF7 cells were incubated with various doses of compound 14 (0.5, 1, 5, 10, and 20 μM) for 24 h, and the expression levels of HSP90 client proteins (EGFR, Akt, and Cdk4), Hsp90, HSP70, and glyceraldehyde-3-phosphate dehydrogenase (GAPDH) were determined by Western blot analysis (Figure 6).
MCF7 cells were seeded in 60 mm culture dishes, incubated overnight, and treated with the indicated concentrations of compound 14 or geldanamycin for 24 h. Cells were then harvested and lysed on ice by radioimmunoprecipitation assay (RIPA) buffer (23 mM Tris-HCl (pH 7.6), 130 mM NaCl, 1% nonidet P-40 (NP-40), 1% sodium deoxycholate, 0.1% SDS) supplemented with protease and phosphatase inhibitor cocktails, and […] of lysate perlane was separated by SDS-PAGE, followed by transferring to a polyvinylidene fluoride (PVDF) membrane (Bio-Rad, Hercules, CA, USA). The membrane was blocked with 5% skim milk in TBS-T, and then incubated with the corresponding primary antibody (EGFR, Akt, Hsp90, Hsp70, or GAPDH). After binding of an appropriate secondary antibody (Santa Cruz, CA, USA) coupled to horseradish peroxidase, proteins were visualized by enhanced chemiluminescence (ECL) according to the instructions of the manufacturer (GE healthcare, Chicago, IL, USA).

Series [7] has as its target Hsp90α (Homo sapiens, UniProt P07900). Put plainly: Colorimetric determination of ATPase activity of Hsp90. The class given is biochemical. As to conditions: 50 µM compound, 30 min, compared to positive control with Hsp90α, duplicate. As to the method:
The reaction was terminated by adding 200 μL reagent buffer. Followed by incubation with reagent buffer for 30 min at the room temperature, the absorbance was measured at 620 nm using a Biotek-Synergy Neo-Plate Reader (BioTek Instruments, Winooski, VT, USA).

On the set-up of series [8]: method as in PMID 22938030. The conditions noted are these: in mice; cited from earlier work.
[9] abbreviates: ITC, 25 °C, one-site binding model.
Where [10] appears, read: ITC, 25 °C, one-site binding model, read-out: KD.
Where [11] appears, read: single dose 10 μM, duplicate, FITC-GM probe.

Like-named read-outs stand apart in the source and are kept apart here.

In the case of `CC(C)(C)C1=NOC(Cn2cnc3c(Cl)nc(N)nc32)C1` (stereo not drawn) [Compound 4b, 9-((3-(tert-Butyl)-4,5-dihydroisoxazol-5-yl)methyl)-6-chloro-9H-purin-2-amine], the melting point fell in the range of 198.3 to 200.8 °C. Besides, in series [1] (ITC, 25 °C), the “∆H” value was -19.8 ± 3.29 kcal/mol and the “∆S” value is recorded as −44.5 cal/mol/deg. The “N (binding stoichiometry)” value in series [1] (setting [9]) came to 1.17. Further, the Kd in series [1] (setting [10]) came to 15600 nM. Further, in [2], the inhibition at 10 µM is < 30%. In series [3] (setting [11]), the inhibition at 10 µM was 35.4%.
For the compound `CC(C)(C)c1cc(Cn2cnc3c(Cl)nc(N)nc32)on1` [Compound 6b, 9-((3-(tert-Butyl)isoxazol-5-yl)methyl)-6-chloro-9H-purin-2-amine], in series [1] (ITC, 25 °C), the “∆H” value is -14.5 ± 0.4 kcal/mol. Moreover, in [1] (ITC, 25 °C), the “∆S” value is listed as −19.4 cal/mol/deg. Besides, the “N (binding stoichiometry)” value in series [1] (setting [9]) worked out at 0.97. Moreover, the Kd in series [1] (setting [10]) stood at 440 nM. The inhibition at 10 µM stood at 26% in series [2], 95.8% in series [3] (setting [11]), 15.7% in series [4] and 45.8% in series [5]. The “potency relative to isoxazoline congener 4b (from % inhibition)” value in series [3] (10 μM, FITC-GM probe) is listed as 2.7 fold. In addition, the IC50 in series [3] (FITC-GM probe) came to 1760 nM. Also, the GI50 in [5] came to 26000 ± 1360 nM.
With `CC(C)c1cc(Cn2cnc3c(Cl)nc(N)nc32)on1` [Compound 6c, 6-Chloro-9-((3-isopropylisoxazol-5-yl)methyl)-9H-purin-2-amine], the “∆H” value in series [1] (ITC, 25 °C) is -15.8 ± 0.5 kcal/mol. In series [1] (ITC, 25 °C), the “∆S” value was −24.8 cal/mol/deg. Moreover, the “N (binding stoichiometry)” value in [1] (setting [9]) is listed as 1.00. For the same compound, in series [1] (setting [10]), the Kd was 680 nM. The inhibition at 10 µM in series [2] was -0.6%; in [3] (setting [11]) it was 77.3%; in [4] it was 11.9%; in [5] it was 33.2%. Moreover, in [3] (FITC-GM probe), the IC50 was determined as 203 nM.
For `Cc1ccc(Cn2cnc3c(Cl)nc(N)nc32)cc1` [Compound 14, 6-Chloro-9-(4-methylbenzyl)-9H-purin-2-amine], the “∆H” value in series [1] (ITC, 25 °C) is -17.8 ± 0.2 kcal/mol. In addition, the “∆S” value in series [1] (ITC, 25 °C) is reported as −30.5 cal/mol/deg. In addition, the “N (binding stoichiometry)” value in [1] (setting [9]) is on record as 0.89. Further, in series [1] (setting [10]), the Kd amounted to 410 nM. The inhibition at 10 µM in [2] was 46.5%; in series [3] (setting [11]), 95.4%; in series [4] it was 55.1%; in series [5], 60.9%. The IC50 in series [3] (FITC-GM probe) turned out to be 1000 nM. Moreover, in series [6] (10 μM), the EGFR expression level result is on record as “remarkably decreased”. Also, the Akt expression level result in series [6] (20 μM) is “remarkably decreased”. Besides, in [6] (0.5-20 μM, dose-dependent), the Hsp70 expression level entry is reported as “upregulated”. In addition, the GI50 came to 16200 ± 710 nM in [4] and 15200 ± 2080 nM in [5]. Also, the activity at 50 µM in series [7] is 83.6%.
Take `C=CCNC1=C2C[C@@H](C)C[C@H](OC)[C@H](O)[C@@H](C)/C=C(\C)[C@H](OC(N)=O)[C@@H](OC)/C=C\C=C(/C)C(=O)NC(=CC1=O)C2=O` [Compound 17-AAG, Allyl-aminogeldanamycin, reference compound]: in [1], the Kd was found to be 2900 nM, the “N (binding stoichiometry)” value came to 0.98, the “∆H” value was -8.6 ± 0.4 kcal/mol and the “∆S” value is −3.66 cal/mol/deg. In addition, the inhibition at 10 µM in series [2] came to 88.9%. Besides, growth in series [2] (mean ± SEM of two experiments) was halved (GI50) at 205 ± 9 nM. The inhibition at 10 µM in series [3] was 100%. Besides, in series [4], the inhibition at 10 µM is 79.7% and the GI50 came out at 498 ± 60 nM. In [5], the inhibition at 10 µM worked out at 74.4% and growth was halved (GI50) at 140 ± 12 nM.
For the compound `COc1c(C)cnc(Cn2cc(C#CCC(C)(C)O)c3c(Cl)nc(N)nc32)c1C` [EC144], the “efficacy relative to BIIB021” value in series [8] is recorded as “approximately 20 fold”.

Values taken from article PMC7763603, “Structural Basis for Design of New Purine-Based Inhibitors Targeting the Hydrophobic Binding Pocket of Hsp90” (International Journal of Molecular Sciences, 2020).
